pIC50: −log10 of the molar value.
Tests used:
[1] = system: COLO 205 colorectal tumor cells; assay: Tumor cell viability inhibition assay (CellTiter-Glo 2.0, 72 hours); format: cell-based; settings: COLO 205 cell viability
Description: The effect of compound treatment on COLO 205 tumor cell viability was assessed using cellular ATP quantification methods (Promega CellTiter-Glo® 2.0, G9241), as follows. Test compounds were prepared using 11-point, 4-fold serial dilutions in DMSO and 100 nL of diluted compounds were transferred to 384-well assay-ready plates. COLO 205 (ATCC, CCL-222) colorectal tumor cells were seeded to assay-ready plates in RPMI-1640 medium supplemented with 10% FBS at 1500 cells in a volume of 33.5 microliters per well. After 72 hours of compound treatment, cellular ATP was assessed by CellTiter-Glo® 2.0 Cell Viability Assay method, according to the manufacturer's instructions. Luminescence was measured using a Clariostar Plus microplate reader (BMG Labtech) or equivalent. After normalization to the average of DMSO control and maximum inhibition control wells, concentration-response data were plotted and standard 4-parameter curve fitting (PEI Signals) was utilized to determine IC50

human eIF4E protein = molecular target: T1, human eIF4E protein (Homo sapiens, UniProt P06730); assay: Biochemical competitive binding assay (TR-FRET competition, EDA-m7GDP-ATTO-647N probe); settings: read-out: hEIF4E TR-FRET IC50
T1 construct: purchased Novus NBP-45314
Description: The potencies of compounds binding to human eIF4E protein were measured using a 384-well time-resolved fluorescence resonance energy transfer (TR-FRET) competition assay. The assay was performed in assay buffer containing 50 mM HTEPES pH 7.5, 100 mM KCl, 0.02% Tween-20, and 0.1 mg/mL bovine serum albumin (BSA). The reaction volume was 10 μL and each reaction contained 4 nM recombinant 6×HIS-tagged human EIF4E protein (Novus, NBP-45314), 5 nM EDA-m7GDP-ATTO-647N (Jena Bioscience, NU-827-647N), 2.5 nM Europium conjugated Anti-6×HIS antibody (PerkinElmer, AD0402) and varying concentrations of compound. The final DMSO concentration was […].
Compounds were prepared using 11-point, 4-fold serial dilutions in DMSO and 100 nL of diluted compounds were transferred to 384-well assay-ready plates. Recombinant human EIF4E protein at 2× final concentration (8 nM) was pre-incubated with Eu-anti-6×HIS antibody at 2× final concentration (5 nM) for 5 minutes, then 5 μL of the protein solution was added to assay-ready plates. The protein/compound mix was incubated for 15 minutes, after which 5 μL of a solution containing EDA-m7GDP-ATTO-647N probe at 2× final concentration (10 nM) was added. After a subsequent 15-minute incubation, time-resolved fluorescence of assay plates was measured using a Clariostar Plus microplate reader (BMG Labtech) and TR-FRET values were calculated by taking a ratio of the 665 to 620 wavelength signals. After normalization to the average of DMSO control and maximum inhibition control wells, concentration-response data were plotted and standard 4-parameter curve fitting (PEI Signals) was utilized to determine IC50 values.

T1 sequence (P06730 whole entry): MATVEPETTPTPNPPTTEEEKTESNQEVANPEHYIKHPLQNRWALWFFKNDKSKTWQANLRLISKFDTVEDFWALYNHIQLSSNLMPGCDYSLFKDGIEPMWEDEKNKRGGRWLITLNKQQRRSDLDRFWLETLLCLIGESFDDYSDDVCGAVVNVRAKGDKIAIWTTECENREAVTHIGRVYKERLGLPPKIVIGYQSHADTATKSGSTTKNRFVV

Row | Structure (SMILES) | pIC50 ([1]; Homo sapiens, COLO 205, 72 h) | pIC50 (human eIF4E protein) | pIC50 [1]
1 | Cc1cc(-c2cc(Cl)ccc2OCCn2c(C)nc3c(c2=O)C[C@@H](N2CCC[C@@]4(CN(CC(F)(F)F)CC4(F)F)C2)CC3)c2scc(C(=O)O)c2n1 (single isomer, unassigned) [Compound 514] | < 4.70 | 5.30 to 6.30 | 
2 | COC1CCN(C2(C)CCc3nc(C)n(CCOc4ccc(Cl)cc4-c4cc(C)nc5c(C(=O)O)csc45)c(=O)c3C2)CC1 (single isomer, unassigned) [Compound 497] |  | 6.30 to 7.00 | < 4.70
3 | Cc1cc(-c2ccc(Cl)cc2OCCn2c(C)nc3c(c2=O)C[C@@H](N(C)[C@H]2C[C@@](C)(O)C2)CC3)c2scc(C(=O)O)c2n1 (single isomer, unassigned) [Compound 228] | < 4.70 | > 7.00 | 
4 | Cc1cc(-c2cc(Cl)ccc2OCCn2c(C)nc3c(c2=O)CC(N2CC4(CCC(F)(F)CC4)C2)CC3)c2scc(C(=O)NS(C)(=O)=O)c2n1 (single isomer, unassigned) [Compound 363] | > 5.30 | > 7.00 | 
5 | Cc1cc(-c2cc(Cl)ccc2OCCn2c(C)nc3c(c2=O)C[C@H](N2CCC[C@H](c4cnn(C)c4)C2)CC3)c2scc(C(=O)O)c2n1 (single isomer, unassigned) [Compound 485] | > 5.30 | > 7.00 | 
6 | Cc1cc(-c2cc(Cl)ccc2OCCn2c(C)nc3c(c2=O)CC(N2C4CCC2CC(F)(F)C4)CC3)c2scc(C(=O)O)c2n1 (stereo not shown) [Compound 126] | > 5.30 | > 7.00 | 
7 | COC1CCN(C2CCc3nc(C)n(CC#Cc4ccc(Cl)cc4-c4ccnc5c(C(=O)O)csc45)c(=O)c3C2)CC1 (single isomer, unassigned) [Compound 365] | > 5.30 | > 7.00 | 
8 | Cc1cc(-c2cc(Cl)ccc2OCCn2c(C)nc3c(c2=O)CC(N2CCC4(CN(CC(F)(F)F)CC(F)(F)C4)C2)CC3)c2scc(C(=O)O)c2n1 (single isomer, unassigned) [Compound 512] |  | > 7.00 | > 5.30
9 | Cc1cc(-c2cc(Cl)ccc2OCCn2c(C)nc3c(c2=O)C[C@H](N2CCC[C@@]4(C2)CC4(F)F)CC3(C)C)c2scc(C(=O)O)c2n1 (single isomer, unassigned) [Compound 439] | > 5.30 | > 7.00 | 
10 | Cc1cc(-c2cc(Cl)ccc2OCCn2c(C)nc3c(c2=O)C[C@@](C)(N2CCC[C@@]4(C2)CC4(F)F)CC3)c2scc(C(=O)O)c2n1 (single isomer, unassigned) [Compound 555] | 4.70 to 5.30 | 6.30 to 7.00 | 
11 | Cc1cc(-c2cc(Cl)ccc2OCCn2c(C)nc3c(c2=O)CC(C)(N2CCC4(CC2)CC4(F)F)CC3)c2scc(C(=O)O)c2n1 (single isomer, unassigned) [Compound 556] | > 5.30 | > 7.00 | 
12 | Cc1cc(-c2cc(Cl)ccc2OCCn2c(C)nc3c(c2=O)C[C@H](N2C[C@@H]4CC(F)(F)C[C@@H]4C2)CC32CC2)c2scc(C(=O)O)c2n1 (single isomer, unassigned) [Compound 618] | > 5.30 | > 7.00 | 
13 | Cc1cc(-c2cc(Cl)ccc2OCCn2c(C)nc3c(c2=O)C[C@@H](N(C)[C@H]2CC[C@@](C)(O)CC2)CC3)c2scc(C(=O)O)c2n1 (single isomer, unassigned) [Compound 225] | < 4.70 | > 7.00 | 
14 | COc1cc(CN(CC(F)F)C2CCc3nc(C)n(CCOc4ccc(Cl)cc4-c4cc(C)nc5c(C(=O)O)csc45)c(=O)c3C2)ccn1 (stereo not shown) [Compound 112, 7-[2-[2-[6-[2,2-bis(fluorenyl)ethyl-[(2-methoxy-4-pyridyl)methyl]amino]-2-methyl-4-oxidanylidene-5,6,7,8-tetrahydroquinazolin-3-yl]ethoxy]-5-chloranyl-phenyl]-5-methyl-thieno[3,2-b]pyridine-3-carboxylic acid] | 4.70 to 5.30 | > 7.00 | 
15 | CCN(Cc1ccnc(OC)c1)C1CCc2nc(C)n(CCOc3ccc(Cl)cc3-c3cc(C)nc4c(C(=O)O)csc34)c(=O)c2C1 (stereo not shown) [Compound 129] | > 5.30 | > 7.00 | 
16 | Cc1cc(-c2cc(Cl)ccc2OCCn2c(C)nc3c(c2=O)C[C@@H](N2CCCCC(F)(F)C2)CC3)c2scc(C(=O)O)c2n1 (single isomer, unassigned) [Compound 470] | > 5.30 | > 7.00 | 

Continued, values first:

Row | pIC50 ([1]; Homo sapiens, COLO 205, 72 h) | pIC50 (human eIF4E protein) | pIC50 [1] | Structure (SMILES)
17 | > 5.30 | > 7.00 |  | Cc1cc(-c2cc(Cl)ccc2OCCn2c(C)nc3c(c2=O)C[C@@H](N2CCC(c4ccn(C)n4)CC2)CC3)c2scc(C(=O)O)c2n1 (single isomer, unassigned) [Compound 454]
18 | < 4.70 | 5.30 to 6.30 |  | Cc1cc(-c2cc(Cl)ccc2OCCn2c(C)nc3c(c2=O)C[C@H](N2CCCC[C@@H]2c2cccc(C(F)(F)F)c2)CC3)c2scc(C(=O)O)c2n1 (single isomer, unassigned) [Compound 590]
19 | < 4.70 | > 7.00 |  | CO[C@@H]1CCN([C@@H]2CCc3nc(C)n(CCOc4ccc(Cl)cc4-c4cc(C)nc5c(C(=O)O)csc45)c(=O)c3C2)CC12CC2 (single isomer, unassigned) [Compound 519]
20 | > 5.30 | > 7.00 |  | Cc1cc(-c2cc(Cl)ccc2OCCn2c(C)nc3c(c2=O)C[C@@H](N2CCC4(CC2)CC4(F)F)CC3)c2scc(C(=O)O)c2n1 (single isomer, unassigned) [Compound 391]
21 | > 5.30 | > 7.00 |  | Cc1cc(-c2cc(Cl)ccc2OCCn2c(C)nc3c(c2=O)C[C@H](N2CCC(c4cc(F)cc(F)c4F)CC2)CC3)c2scc(C(=O)O)c2n1 (single isomer, unassigned) [Compound 573]
22 | > 5.30 | > 7.00 |  | Cc1cc(-c2cc(Cl)ccc2OCCn2c(C)nc3c(c2=O)C[C@H](N2CCC(c4cncc(S(=O)(=O)NC(C)(C)C)c4)CC2)CC3)c2scc(C(=O)O)c2n1 (single isomer, unassigned) [Compound 455]
23 | > 5.30 | > 7.00 |  | Cc1cc(-c2cc(Cl)ccc2OCCn2c(C)nc3c(c2=O)CC(N2CCC(c4ccc(F)cc4)CC2)CC3)c2scc(C(=O)O)c2n1 (stereo not shown) [Compound 132]
24 | > 5.30 | > 7.00 |  | Cc1cc(-c2cc(Cl)ccc2OCCn2c(C)nc3c(c2=O)CC(N2CC4(CCCN(CC(F)(F)F)C4)C2)CC3)c2scc(C(=O)O)c2n1 (single isomer, unassigned) [Compound 507]
25 | > 5.30 | > 7.00 |  | Cc1cc(-c2cc(Cl)ccc2OCCn2c(C)nc3c(c2=O)C[C@H](N2CCC(N4CC(F)(F)C4)CC2)CC3)c2scc(C(=O)O)c2n1 (single isomer, unassigned) [Compound 111]
26 | > 5.30 | > 7.00 |  | Cc1cc(-c2cc(Cl)ccc2OCCn2c(C)nc3c(c2=O)C[C@@H](N2CCO[C@@H](COC(F)(F)F)C2)CC3)c2scc(C(=O)O)c2n1 (single isomer, unassigned) [Compound 479]
27 | > 5.30 | > 7.00 |  | Cc1cc(-c2cc(Cl)ccc2OCCn2c(C)nc3c(c2=O)C[C@H](N2CCC(c4ccccc4OC(F)(F)F)CC2)CC3)c2scc(C(=O)O)c2n1 (single isomer, unassigned) [Compound 571]
28 | > 5.30 | > 7.00 |  | Cc1cc(-c2cc(Cl)ccc2OCCn2c(C)nc3c(c2=O)C[C@H](N2CCC(c4ncccc4F)CC2)CC3)c2scc(C(=O)O)c2n1 (single isomer, unassigned) [Compound 444]
29 | > 5.30 | > 7.00 |  | Cc1cc(-c2cc(Cl)ccc2OCCn2c(C)nc3c(c2=O)C[C@@H](N2CCC(c4nc(C(F)(F)F)cs4)CC2)CC3)c2scc(C(=O)O)c2n1 (single isomer, unassigned) [Compound 578]
30 | > 5.30 | > 7.00 |  | Cc1cc(-c2cc(Cl)ccc2OCCn2c(C)nc3c(c2=O)C[C@@H](N2CC[C@@H](OC(F)(F)F)C2)CC3)c2scc(C(=O)O)c2n1 (single isomer, unassigned) [Compound 389]
31 | > 5.30 | > 7.00 |  | Cc1cc(-c2cc(Cl)ccc2OCCn2c(C)nc3c(c2=O)C[C@H](N2CCC(c4nc5ccc(F)cc5s4)CC2)CC3)c2scc(C(=O)O)c2n1 (single isomer, unassigned) [Compound 593]
32 | > 5.30 | > 7.00 |  | Cc1cc(-c2cc(Cl)ccc2OCCn2c(C)nc3c(c2=O)C[C@H](N2CCC[C@@H](C(F)(F)F)C2)CC3)c2scc(C(=O)O)c2n1 (single isomer, unassigned) [Compound 382]

From patent US20240246918A1, “COMPOUNDS AND COMPOSITIONS AS EIF4E INHIBITORS AND THE USES THEREOF” (Ribometrix, Inc., priority 2022, published 2024)
